Results reported in paper PMC8271847, “In Silico Approach Using Free Software to Optimize the Antiproliferative Activity and Predict the Potential Mechanism of Action of Pyrrolizine-Based Schiff Bases” (Molecules, 2021).
Like-named read-outs stand apart in the source and are kept apart here.

How the values were obtained:
COX-2 = conditions: cited from earlier work
COX-1 = test system: COX-1; parameters: method as in PMID 26994693; conditions: Figure 2; cited from earlier work
5-LOX = test system: 5-LOX; parameters: method as in PMID 26994693; conditions: Figure 2; cited from earlier work
MCF7 cells [1] = test system: MCF7 cells; parameters: method as in PMID 31259695; conditions: quoted from previous publication; cited from earlier work
HT29 cells [2] = test system: HT29 cells; parameters: method as in PMID 31259695; conditions: quoted from previous publication; cited from earlier work
[3] = test system: MCF7, A2780 and HT29 cancer cell lines; parameters: method as in PMID 31259695; conditions: read-out: IC50 range against the three cancer cell lines; cited from earlier work
A2780 cells [4] = test system: A2780 cells; parameters: method as in PMID 31259695; conditions: quoted from previous publication; cited from earlier work
[5] = test system: MCF7, A2780 and HT29 cancer cell lines; experiment: MTT antiproliferative activity assay, three cancer cell lines together; format: cell-based; conditions: for Selectivity index range toward the three cancer cell lines: MCF7, A2780, HT29 compared to MRC5 cells; for IC50: MCF7, A2780 and HT29, MTT, 72 h, read-out: IC50 range against the three cancer cell lines
Procedure: (§1) The antiproliferative activities of the eight Schiff bases 16a–h against three cancer cell lines (MCF-7, A2780, and HT29) were evaluated using the MTT assay. The selection of these cell lines was done to compare the antiproliferative activities of the new compounds with those of compound 10 [20]. The assay was performed following the previous report.
(§2) In the current study, the three cancer cell lines (MCF7, A2780, and HT29) used were obtained from the ATCC. The cell lines were cultured following our previous report. On the other hand, the normal MRC5 cells used in the current study were maintained in Eagle’s minimum essential medium following the previous report.
(§3) The antiproliferative activity was measured using the MTT assay according to the previous report. Briefly, the cancer/normal cell lines were cultured in 96-well (3 × 10^3/well) separately. The cells were treated by tested compounds 16a–h in final concentrations of 0, 0.1, 1, 10, 25, and 50 μM and incubated at 37 °C for 72 h. The MTT was added and the antiproliferative activities (IC50 values) of the new compounds were calculated.

MCF7 cells [6] = experiment: MTT antiproliferative activity assay, MCF7; format: cell-based; conditions: for IC50: Homo sapiens, MCF7, MTT, 72 h, mean ± S.D. (n = 3); for Selectivity Index MCF7: IC50 against MRC5 divided by IC50 against MCF7
Procedure: as §1, §2, §3

[7] = MTT assay against normal MRC5 cells; format: cell-based; conditions: human, 72 h treatment, mean ± SD (n = 3)
Procedure: Selectivity of the antiproliferative agents toward cancer cells plays a critical role in the development of these agents as potential anticancer drugs. […] In the current study, all of the new compounds 16a–h were evaluated for the antiproliferative activities against the normal MRC5 cells. […] The aim of this study was to assess the toxicity of the new compounds against normal MRC5 cells. In addition, the IC50 values were also used to calculate the selectivity index (SI) which measures the selective cytotoxicity of the new compounds.
as §2, §3

HT29 cells [8] = experiment: MTT antiproliferative activity assay, HT29; format: cell-based; conditions: for IC50: Homo sapiens, HT-29, MTT, 72 h, mean ± S.D. (n = 3); for Selectivity Index HT29: IC50 against MRC5 divided by IC50 against HT29
Procedure: as §1, §2, §3

A2780 cells [9] = experiment: MTT antiproliferative activity assay, A2780; format: cell-based; conditions: for IC50: Homo sapiens, A2780, MTT, 72 h, mean ± S.D. (n = 3); for Selectivity Index A2780: IC50 against MRC5 divided by IC50 against A2780
Procedure: as §1, §2, §3

MCF7 cells [10] = experiment: Cell cycle analysis by flow cytometry; format: cell-based; conditions: MCF7 cells, 0.01, 0.05, 0.10 μM, 72 h
Procedure: Cell cycle analysis of MCF7 cells was also performed to investigate the mechanism which mediates the antiproliferative activity of the new compounds. […] The assay was performed according to the previous report. The results are represented in Figure 11.
The effect of compound 16g on the cell cycle distribution of MCF7 was performed following the previous report. Briefly, the cancer cells were cultured for 72 h with 0.00, 0.01, 0.05, and 0.10 μM final concentration of compound 16g. Next, the cells were washed with PBS x1 and trypsinized. The collected cells were spinned and fixed with 70% ethanol. Ribonuclease A was added (15 min) after suspending the cells in cold PBS x1. Following the addition of propidium iodide, analysis of the ice-cold cells was done by flow cytometry (BC, FC500, Brea, CA, USA).

A549 cells = conditions: cited from earlier work
MCF7 = conditions: Figure 2; cited from earlier work
[11] = Figure 2, read-out: IC50 (COX-2)

COC1c2c(-c3ccccc3)c(-c3ccc(Cl)cc3)c(C)n2CC1(C)C (stereo not shown) [Compound 8]
IC50 (COX-2; [11]): 7.5 µM
IC50 (COX-1): 0.5 µM
IC50 (5-LOX): 0.06 µM

Cc1ccc(-c2c(-c3ccc(S(C)(=O)=O)cc3)cn3c2CCC3)cc1 [Compound 9]
IC50 (COX-2; [11]): 0.005 µM
IC50 (COX-1): 0.7 µM
IC50 (5-LOX): 10 µM

Cc1ccc(NC(=O)c2c(/N=C/c3ccc(Cl)cc3)c(C#N)c3n2CCC3)cc1 [Compound 10]
IC50 (MCF7 cells [1]): 0.33 ± 0.12 µM
IC50 (HT29 cells [2]): 0.41 ± 0.02 µM
IC50 [3]: 0.33 to 0.44 µM
IC50 (A2780 cells [4]): 0.44 ± 0.01 µM

COc1ccc(NC(=O)c2c(N=Cc3ccc(N(C)C)cc3)c(C#N)c3n2CCC3)cc1 [Compound 16a, 7-Cyano-6-((4-(dimethylamino)benzylidene)amino)-N-(4-methoxyphenyl)-2,3-dihydro-1H-pyrrolizine-5-carboxamide]
Selectivity index range toward the three cancer cell lines [5]: 0.03–6.68
IC50 [5]: 0.19 to 40.5 µM
melting point: 226 to 228 °C
IC50 (MCF7 cells [6]): 40.5 ± 10.6 µM
Selectivity Index MCF7 (MCF7 cells [6]): 0.03
IC50 at 72 h [7]: 1.27 ± 0.48 µM
IC50 (HT29 cells [8]): 0.19 ± 0.02 µM
Selectivity Index HT29 (HT29 cells [8]): 6.68
IC50 (A2780 cells [9]): 13.9 ± 1.92 µM
Selectivity Index A2780 (A2780 cells [9]): 0.09

CN(C)c1ccc(C=Nc2c(C#N)c3n(c2C(=O)Nc2ccc(F)cc2)CCC3)cc1 [Compound 16b, 7-Cyano-6-((4-(dimethylamino)benzylidene)amino)-N-(4-fluorophenyl)-2,3-dihydro-1H-pyrrolizine-5-carboxamide]
melting point: 244 to 246 °C
IC50 (MCF7 cells [6]): 0.08 ± 0.01 µM
Selectivity Index MCF7 (MCF7 cells [6]): 15.88
IC50 at 72 h [7]: 1.27 ± 0.32 µM
IC50 (HT29 cells [8]): 10.2 ± 0.12 µM
Selectivity Index HT29 (HT29 cells [8]): 0.12
IC50 (A2780 cells [9]): 0.9 ± 0.08 µM
Selectivity Index A2780 (A2780 cells [9]): 1.41

COc1ccc(NC(=O)c2c(N=Cc3ccc(C)cc3)c(C#N)c3n2CCC3)cc1 [Compound 16c, 7-Cyano-N-(4-methoxyphenyl)-6-((4-methylbenzylidene)amino)-2,3-dihydro-1H-pyrrolizine-5-carboxamide]
melting point: 231 to 233 °C
IC50 (MCF7 cells [6]): 0.03 ± 0.01 µM
IC50 at 72 h [7]: 24.1 ± 1.31 µM
IC50 (HT29 cells [8]): 2.27 ± 0.61 µM
Selectivity Index HT29 (HT29 cells [8]): 10.60
IC50 (A2780 cells [9]): 0.14 ± 0.02 µM

Cc1ccc(C=Nc2c(C#N)c3n(c2C(=O)Nc2ccc(F)cc2)CCC3)cc1 [Compound 16d, 7-Cyano-N-(4-fluorophenyl)-6-((4-methylbenzylidene)amino)-2,3-dihydro-1H-pyrrolizine-5-carboxamide]
melting point: 241 to 243 °C
IC50 (MCF7 cells [6]): 7.05 ± 0.28 µM
Selectivity Index MCF7 (MCF7 cells [6]): 0.34
IC50 at 72 h [7]: 2.42 ± 0.56 µM
IC50 (HT29 cells [8]): 0.17 ± 0.01 µM
Selectivity Index HT29 (HT29 cells [8]): 14.24
IC50 (A2780 cells [9]): 21.2 ± 2.43 µM
Selectivity Index A2780 (A2780 cells [9]): 0.11

COc1ccc(NC(=O)c2c(N=Cc3ccc(F)cc3)c(C#N)c3n2CCC3)cc1 [Compound 16e, 7-Cyano-6-((4-fluorobenzylidene)amino)-N-(4-methoxyphenyl)-2,3-dihydro-1H-pyrrolizine-5-carboxamide]
melting point: 239 to 241 °C
IC50 (MCF7 cells [6]): 0.15 ± 0.02 µM
Selectivity Index MCF7 (MCF7 cells [6]): 18.47
IC50 at 72 h [7]: 2.77 ± 0.09 µM
IC50 (HT29 cells [8]): 0.34 ± 0.03 µM
Selectivity Index HT29 (HT29 cells [8]): 8.15
IC50 (A2780 cells [9]): 1.4 ± 0.21 µM
Selectivity Index A2780 (A2780 cells [9]): 1.98

N#Cc1c(N=Cc2ccc(F)cc2)c(C(=O)Nc2ccc(F)cc2)n2c1CCC2 [Compound 16f, 7-Cyano-6-((4-fluorobenzylidene)amino)-N-(4-fluorophenyl)-2,3-dihydro-1H-pyrrolizine-5-carboxamide]
melting point: 253 to 255 °C
IC50 (MCF7 cells [6]): 40.5 ± 7.7 µM
Selectivity Index MCF7 (MCF7 cells [6]): 0.03
IC50 at 72 h [7]: 1.34 ± 0.45 µM
IC50 (HT29 cells [8]): 0.21 ± 0.12 µM
Selectivity Index HT29 (HT29 cells [8]): 6.38
IC50 (A2780 cells [9]): 0.49 ± 0.12 µM
Selectivity Index A2780 (A2780 cells [9]): 2.73

COc1ccc(NC(=O)c2c(N=Cc3ccc(Cl)cc3)c(C#N)c3n2CCC3)cc1 [Compound 16g, 6-((4-Chlorobenzylidene)amino)-7-cyano-N-(4-methoxyphenyl)-2,3-dihydro-1H-pyrrolizine-5-carboxamide]
Selectivity index range toward the three cancer cell lines [5]: 10.32–578.00
melting point: 241 to 243 °C
IC50 (MCF7 cells [6]): 0.01 µM
Cell cycle perturbation (MCF7 cells [10]): cell cycle arrest at the G2/M phase
IC50 at 72 h [7]: 5.78 ± 0.63 µM
IC50 (HT29 cells [8]): 0.37 ± 0.18 µM
Selectivity Index HT29 (HT29 cells [8]): 15.62
IC50 (A2780 cells [9]): 0.56 ± 0.01 µM
Selectivity Index A2780 (A2780 cells [9]): 10.32

N#Cc1c(N=Cc2ccc(Cl)cc2)c(C(=O)Nc2ccc(F)cc2)n2c1CCC2 [Compound 16h, 6-((4-Chlorobenzylidene)amino)-7-cyano-N-(4-fluorophenyl)-2,3-dihydro-1H-pyrrolizine-5-carboxamide]
melting point: 262 to 264 °C
IC50 (MCF7 cells [6]): 26.9 ± 1.67 µM
Selectivity Index MCF7 (MCF7 cells [6]): 0.06
IC50 at 72 h [7]: 1.6 ± 0.12 µM
IC50 (HT29 cells [8]): 0.71 ± 0.29 µM
Selectivity Index HT29 (HT29 cells [8]): 2.25
IC50 (A2780 cells [9]): 42.6 ± 3.47 µM
Selectivity Index A2780 (A2780 cells [9]): 0.04

O=C(c1ccccc1)c1ccc2n1CCC2C(=O)O (stereo not shown) [Ketorolac, ketorolac]
IC50 (COX-2; [11]): 0.14 µM
IC50 (A549 cells): ~13 µM

CS(=O)(=O)CCNCc1ccc(-c2ccc3ncnc(Nc4ccc(OCc5cccc(F)c5)c(Cl)c4)c3c2)o1 [Lapatinib, lapatinib, reference compound]
IC50 [5]: 5.98 to 13.2 µM
IC50 (MCF7 cells [6]): 5.98 ± 1.31 µM
Selectivity Index MCF7 (MCF7 cells [6]): 2.49
IC50 at 72 h [7]: 14.9 ± 2.45 µM
IC50 (HT29 cells [8]): 13.2 ± 1.82 µM
Selectivity Index HT29 (HT29 cells [8]): 1.13
IC50 (A2780 cells [9]): 9.86 ± 1.72 µM
Selectivity Index A2780 (A2780 cells [9]): 1.51

CC1(C)Cc2c(-c3ccccc3)c(-c3ccc(Cl)cc3)c(CC(=O)O)n2C1 [Licofelone]
IC50 (COX-2; [11]): 4.7 µM
IC50 (MCF7): 5.5 µM

CS(=O)(=O)c1ccc(C2=C(c3ccccc3)C(=O)OC2)cc1 [Rofecoxib, rofecoxib]
IC50 (COX-2; read-out: IC50 against COX-2): 0.53 µM
